Source: paper PMC5574958, “Radiosynthesis and Preclinical Evaluation of [^18F]F-DPA, A Novel Pyrazolo[1,5a]pyrimidine Acetamide TSPO Radioligand, in Healthy Sprague Dawley Rats” (Molecular Imaging and Biology, 2017)

Assays:
[1] = RadioTLC analyses of radiometabolites in plasma and brain homogenates; type: in vivo, Sprague Dawley rats; settings: for Unchanged radiotracer, share of radioactivity in the brain: brain homogenate
Description: The blood samples were taken into Li-heparin tubes and centrifuged (3000×g, 10 min). The plasma was transferred to an Eppendorf tube and the plasma proteins were precipitated by addition of 1.5 parts of MeOH by volume. Following a further centrifugation (12,000×g, 4 min), 20 μl of the supernatant was spotted onto an aluminum-backed silica gel 60/Kieselguhr F254 TLC plate (EMD Millipore 1.05567.0001, Merck Millipore, Darmstadt, Germany).
Brain samples from the cortex were homogenized with approximately 200 μl of 1:1 v/v of MeOH and water; the mixture was transferred to an Eppendorf tube and centrifuged (12,000×g, 4 min). An aliquot (20 μl) of the supernatant was spotted onto the TLC plate.
The TLC plates were developed with a mixture of dichloromethane and methanol (9:1, v/v) for a distance of 6 cm. Following this, the plates were exposed onto an imaging plate (Fuji BAS Imaging Plate TR2025, Fuji Photo Film Co., Ltd., Tokyo, Japan) for approximately two half-lives of fluorine-18 (3.5 to 4 h). After the exposure, the imaging plates were scanned using a BAS-5000 reader (Fuji, Japan) with a resolution of 50 μm and the saved images were analyzed using TINA software (version 2.10 g, Raytest, Isotopenmessgeräte, GmbH, Straubenhardt, Germany).

TSPO = settings: read-out: K i (TSPO affinity); cited from earlier work
Ex vivo biodistribution = type: in vivo, Sprague Dawley rats; settings: for Uptake of fluorine-18-radioactivity, Harderian gland / Uptake of fluorine-18-radioactivity, Brain / Uptake of fluorine-18-radioactivity, Brown fat / Uptake of fluorine-18-radioactivity, Eye x2 / Uptake of fluorine-18-radioactivity, Injection site (tail) / Uptake of fluorine-18-radioactivity, Large int. Wall + contents / Uptake of fluorine-18-radioactivity, Liver / Uptake of fluorine-18-radioactivity, Lung / Uptake of fluorine-18-radioactivity, Muscle / Uptake of fluorine-18-radioactivity, Salivary x2 / Uptake of fluorine-18-radioactivity, Small int. wall + contents / Uptake of fluorine-18-radioactivity, Stomach wall + contents / Uptake of fluorine-18-radioactivity, Testis: mean, n = 3
Description: After sacrifice (5, 15, 30, 60, and 90 min after injection, n = 3, for every time point and radiotracer), the blood was collected into Li-heparin tubes and transcardial perfusion with saline was conducted rapidly in order to eliminate the blood from the whole body. Following this, the organs of the animals were collected, individually weighed, and the radioactivity was measured using a gamma counter (Wizard^2 3 × 3″, PerkinElmer, Turku, Finland). The decay-corrected radioactivity is reported as percentage of injected dose per gram (%ID/g).

[2] = In vivo PET/CT imaging, time-activity curves; set-up: species or system Sprague Dawley rats
Description: Rats were anesthetized with isoflurane/oxygen gas and injected intravenously with [^18F]F-DPA (31.4 ± 2.1 MBq, n = 4 SA at the time of injection = 4.1 ± 0.4 GBq/μmol) for scanning by an Inveon multimodality PET/CT tomograph (Siemens Medical Solutions, Knoxville, TN, USA). In order to prevent eye dryness, a few drops of Oftagel (25 mg/g; Santen, Tampere, Finland) were applied to the eyes of the animals. The scanner has a 12.7 cm axial field of view (FOV) and 10 cm transaxial FOV generating images from 159 transaxial slices. The spatial resolution of the scanner is 1.4 mm according to the manufacturer’s specifications. The animals were scanned for 10 min with computed tomography (CT) for attenuation correction and anatomical reference, and immediately after that, the radiotracer was injected for a 60-min dynamic PET scan. Frames were taken at the following intervals: 30 × 10, 15 × 60, 4 × 300, and 2 × 600 s. Volume of interests (VOIs) were drawn over the whole brain, heart, lung, liver, and kidneys using Inveon Research Workplace Image Analysis software (Siemens Medical Solutions). From the VOIs, time–activity curves (TACs) were obtained and the uptake of [^18F]F-DPA was expressed as percentage of injected dose per milliliter of tissue (%inj. dose/ml).

CBR = settings: read-out: K i CBR (selectivity); cited from earlier work

CCN(CC)C(=O)Cc1c(-c2ccc([18F])cc2)nn2c(C)cc(C)nc12 [[^18F]F-DPA]
Unchanged radiotracer, share of radioactivity in the brain ([1]; 20–30 min after injection): greater than 95% | Unchanged radiotracer, share of radioactivity in the brain ([1]; 90 min after injection, n = 3): 93.5 ± 2.8% | Unchanged radiotracer, share of radioactivity in the plasma ([1]; plasma, 90 min after injection, n = 3): 28.3 ± 6.4% | Ki (TSPO): 1.7 nM | Uptake of fluorine-18-radioactivity, Harderian gland (Ex vivo biodistribution; 5 min after injection): 0.54 %ID/g tissue | Uptake of fluorine-18-radioactivity, Harderian gland (Ex vivo biodistribution; 15 min after injection): 0.59 %ID/g tissue | Uptake of fluorine-18-radioactivity, Harderian gland (Ex vivo biodistribution; 30 min after injection): 0.62 %ID/g tissue | Uptake of fluorine-18-radioactivity, Harderian gland (Ex vivo biodistribution; 60 min after injection): 0.83 %ID/g tissue | Uptake of fluorine-18-radioactivity, Harderian gland (Ex vivo biodistribution; 90 min after injection): 0.55 %ID/g tissue | Accumulation of radioactivity in the bone (defluorination in vivo) (Ex vivo biodistribution; after the initial uptake at 5 min, up to 90 min): no significant accumulation of radioactivity in the bone | Uptake of fluorine-18-radioactivity, Brain (Ex vivo biodistribution; 5 min after injection): 0.23 %ID/g tissue | Uptake of fluorine-18-radioactivity, Brain (Ex vivo biodistribution; 15 min after injection): 0.17 %ID/g tissue | Uptake of fluorine-18-radioactivity, Brain (Ex vivo biodistribution; 30 min after injection): 0.09 %ID/g tissue | Uptake of fluorine-18-radioactivity, Brain (Ex vivo biodistribution; 60 min after injection): 0.07 %ID/g tissue | Uptake of fluorine-18-radioactivity, Brain (Ex vivo biodistribution; 90 min after injection): 0.06 %ID/g tissue | Uptake of fluorine-18-radioactivity, Brown fat (Ex vivo biodistribution; 5 min after injection): 0.28 %ID/g tissue | Uptake of fluorine-18-radioactivity, Brown fat (Ex vivo biodistribution; 15 min after injection): 0.43 %ID/g tissue | Uptake of fluorine-18-radioactivity, Brown fat (Ex vivo biodistribution; 30 min after injection): 1.11 %ID/g tissue | Uptake of fluorine-18-radioactivity, Brown fat (Ex vivo biodistribution; 60 min after injection): 0.44 %ID/g tissue | Uptake of fluorine-18-radioactivity, Brown fat (Ex vivo biodistribution; 90 min after injection): 0.95 %ID/g tissue | Blood radioactivity compared with [^18F]DPA-714 (Ex vivo biodistribution; ex vivo %ID/g, two-tailed unpaired t test, P ≤ 0.006): significantly lower | Uptake of fluorine-18-radioactivity, Eye x2 (Ex vivo biodistribution; eye x2, 5 min after injection): 0.32 %ID/g tissue | Uptake of fluorine-18-radioactivity, Eye x2 (Ex vivo biodistribution; eye x2, 15 min after injection): 0.29 %ID/g tissue | Uptake of fluorine-18-radioactivity, Eye x2 (Ex vivo biodistribution; eye x2, 30 min after injection): 0.21 %ID/g tissue | Uptake of fluorine-18-radioactivity, Eye x2 (Ex vivo biodistribution; eye x2, 60 min after injection): 0.16 %ID/g tissue | Uptake of fluorine-18-radioactivity, Eye x2 (Ex vivo biodistribution; eye x2, 90 min after injection): 0.16 %ID/g tissue | Uptake of fluorine-18-radioactivity, Injection site (tail) (Ex vivo biodistribution; 5 min after injection): 0.36 %ID/g tissue | Uptake of fluorine-18-radioactivity, Injection site (tail) (Ex vivo biodistribution; 15 min after injection): 0.38 %ID/g tissue | Uptake of fluorine-18-radioactivity, Injection site (tail) (Ex vivo biodistribution; 30 min after injection): 0.28 %ID/g tissue | Uptake of fluorine-18-radioactivity, Injection site (tail) (Ex vivo biodistribution; 60 min after injection): 0.42 %ID/g tissue | Uptake of fluorine-18-radioactivity, Injection site (tail) (Ex vivo biodistribution; 90 min after injection): 0.38 %ID/g tissue | Uptake of fluorine-18-radioactivity, Large int. Wall + contents (Ex vivo biodistribution; 5 min after injection): 0.30 %ID/g tissue | Uptake of fluorine-18-radioactivity, Large int. Wall + contents (Ex vivo biodistribution; 15 min after injection): 0.31 %ID/g tissue | Uptake of fluorine-18-radioactivity, Large int. Wall + contents (Ex vivo biodistribution; 30 min after injection): 0.33 %ID/g tissue | Uptake of fluorine-18-radioactivity, Large int. Wall + contents (Ex vivo biodistribution; 60 min after injection): 0.29 %ID/g tissue | Uptake of fluorine-18-radioactivity, Large int. Wall + contents (Ex vivo biodistribution; 90 min after injection): 0.28 %ID/g tissue | Uptake of fluorine-18-radioactivity, Liver (Ex vivo biodistribution; 5 min after injection): 0.77 %ID/g tissue | Uptake of fluorine-18-radioactivity, Liver (Ex vivo biodistribution; 15 min after injection): 0.82 %ID/g tissue | Uptake of fluorine-18-radioactivity, Liver (Ex vivo biodistribution; 30 min after injection): 0.49 %ID/g tissue | Uptake of fluorine-18-radioactivity, Liver (Ex vivo biodistribution; 60 min after injection): 0.43 %ID/g tissue | Uptake of fluorine-18-radioactivity, Liver (Ex vivo biodistribution; 90 min after injection): 0.31 %ID/g tissue | Uptake of fluorine-18-radioactivity, Lung (Ex vivo biodistribution; 5 min after injection): 5.94 %ID/g tissue | Uptake of fluorine-18-radioactivity, Lung (Ex vivo biodistribution; 15 min after injection): 4.04 %ID/g tissue | Uptake of fluorine-18-radioactivity, Lung (Ex vivo biodistribution; 30 min after injection): 2.27 %ID/g tissue | Uptake of fluorine-18-radioactivity, Lung (Ex vivo biodistribution; 60 min after injection): 1.79 %ID/g tissue | Uptake of fluorine-18-radioactivity, Lung (Ex vivo biodistribution; 90 min after injection): 1.47 %ID/g tissue | Uptake of fluorine-18-radioactivity, Muscle (Ex vivo biodistribution; 5 min after injection): 0.07 %ID/g tissue | Uptake of fluorine-18-radioactivity, Muscle (Ex vivo biodistribution; 15 min after injection): 0.07 %ID/g tissue | Uptake of fluorine-18-radioactivity, Muscle (Ex vivo biodistribution; 30 min after injection): 0.09 %ID/g tissue | Uptake of fluorine-18-radioactivity, Muscle (Ex vivo biodistribution; 60 min after injection): 0.11 %ID/g tissue | Uptake of fluorine-18-radioactivity, Muscle (Ex vivo biodistribution; 90 min after injection): 0.12 %ID/g tissue | Uptake of fluorine-18-radioactivity, Salivary x2 (Ex vivo biodistribution; salivary x2, 5 min after injection): 0.70 %ID/g tissue | Uptake of fluorine-18-radioactivity, Salivary x2 (Ex vivo biodistribution; salivary x2, 15 min after injection): 0.82 %ID/g tissue | Uptake of fluorine-18-radioactivity, Salivary x2 (Ex vivo biodistribution; salivary x2, 30 min after injection): 1.56 %ID/g tissue | Uptake of fluorine-18-radioactivity, Salivary x2 (Ex vivo biodistribution; salivary x2, 60 min after injection): 1.21 %ID/g tissue | Uptake of fluorine-18-radioactivity, Salivary x2 (Ex vivo biodistribution; salivary x2, 90 min after injection): 1.00 %ID/g tissue | Uptake of fluorine-18-radioactivity, Small int. wall + contents (Ex vivo biodistribution; 5 min after injection): 1.19 %ID/g tissue | Uptake of fluorine-18-radioactivity, Small int. wall + contents (Ex vivo biodistribution; 15 min after injection): 1.47 %ID/g tissue | Uptake of fluorine-18-radioactivity, Small int. wall + contents (Ex vivo biodistribution; 30 min after injection): 2.00 %ID/g tissue | Uptake of fluorine-18-radioactivity, Small int. wall + contents (Ex vivo biodistribution; 60 min after injection): 1.95 %ID/g tissue | Uptake of fluorine-18-radioactivity, Small int. wall + contents (Ex vivo biodistribution; 90 min after injection): 2.59 %ID/g tissue | Uptake of fluorine-18-radioactivity, Stomach wall + contents (Ex vivo biodistribution; 5 min after injection): 0.50 %ID/g tissue | Uptake of fluorine-18-radioactivity, Stomach wall + contents (Ex vivo biodistribution; 15 min after injection): 0.54 %ID/g tissue | Uptake of fluorine-18-radioactivity, Stomach wall + contents (Ex vivo biodistribution; 30 min after injection): 0.93 %ID/g tissue | Uptake of fluorine-18-radioactivity, Stomach wall + contents (Ex vivo biodistribution; 60 min after injection): 1.07 %ID/g tissue | Uptake of fluorine-18-radioactivity, Stomach wall + contents (Ex vivo biodistribution; 90 min after injection): 0.74 %ID/g tissue | Uptake of fluorine-18-radioactivity, Testis (Ex vivo biodistribution; 5 min after injection): 0.21 %ID/g tissue | Uptake of fluorine-18-radioactivity, Testis (Ex vivo biodistribution; 15 min after injection): 0.28 %ID/g tissue | Uptake of fluorine-18-radioactivity, Testis (Ex vivo biodistribution; 30 min after injection): 0.23 %ID/g tissue | Uptake of fluorine-18-radioactivity, Testis (Ex vivo biodistribution; 60 min after injection): 0.26 %ID/g tissue | Uptake of fluorine-18-radioactivity, Testis (Ex vivo biodistribution; 90 min after injection): 0.27 %ID/g tissue | Excretion pathway ([2]; in vivo TACs, high F-18 radioactivity in the intestine): excreted via the hepatobiliary pathway | Time after injection at which concentration equilibrium is reached in the brain ([2]; whole brain TAC, i.v. injection, 60-min dynamic PET): 20 to 30 min | Ki (CBR): > 1000 nM
